Results taken from patent US20230061736A1, “GPR119 AGONISTS” (Kallyope, Inc., priority 2019, published 2023).

Target: T1, human GPR119 (hGPR119) (Homo sapiens, UniProt Q8TDV5)
T1 construct: expressed in transfected cells
T1 sequence (Q8TDV5 1-335): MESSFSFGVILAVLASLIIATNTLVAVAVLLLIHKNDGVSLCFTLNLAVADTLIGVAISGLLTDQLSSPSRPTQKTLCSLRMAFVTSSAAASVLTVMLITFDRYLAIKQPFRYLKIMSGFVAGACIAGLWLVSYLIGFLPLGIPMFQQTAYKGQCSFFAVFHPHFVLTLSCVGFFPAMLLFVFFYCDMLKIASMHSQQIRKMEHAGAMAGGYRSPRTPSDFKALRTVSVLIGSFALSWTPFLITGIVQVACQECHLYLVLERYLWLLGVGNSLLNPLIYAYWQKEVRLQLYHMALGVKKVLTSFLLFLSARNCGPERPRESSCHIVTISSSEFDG
Test: cAMP accumulation assay (cAMP Gs dynamic HTRF kit)
Format: cell-based
Settings: CHO-K1 cells stably expressing hGPR119, 4-parameter fit; for Emax: 1 h, % activity normalized to Max/Min controls; for EC50: cAMP accumulation
Method: CHO-K1 cells stably expressing human GPR119 (hGPR119) were prepared by transfection of a GPR119-carrying plasmid using Lipofectamine 2000 (following manufacturer instructions). A stable cell line was established using the limiting dilution method with geneticine selection. Assay-ready frozen (ARF) cells were prepared and used throughout the study.
The assay was performed in a 384-well plate format using the cAMP Gs dynamic assay kit from Cisbio. ARF cells expressing hGPR119 were thawed, washed and then resuspended in cAMP stimulation buffer at a cell density of 1.1×10^6 cells/mL. Cells were plated at a density of ˜10,000 cells/well (9 μL/well). Dose response curves for the tested compounds were prepared in a cAMP stimulation buffer, containing 0.1% Tween 80 at 4 fold the final concentration. The compounds were then transferred to the cell plates using BRAVO (3 μL/well) and the plates were incubated for 60 minutes at 37° C./5% CO2. Detection buffer (10 μL, prepared as described in the cAMP Gs dynamic kit) were added to each well, and the plates were incubated at ambient temperature for 1 hr.
RT-FRET was measured using a ClarioSTAR plate reader, calculating the ratio between emissions at 665 nm and 620 nm (HTRF ratio). The HTRF ratio for positive (Max) and negative (Min) controls were used to normalize HTRF data and generate values for % activity. EC50 and Max activity values were determined using a standard 4-parameter fit.

Row | Structure (SMILES) | Emax [%] | EC50 [nM]
1 | COCc1cnc(N2CCC([C@H]3C[C@H]3CCOc3ccc(CC(=O)N4CC(CNC[C@H](O)[C@@H](O)[C@H](O)[C@H](O)CO)C4)c(F)c3)CC2)nc1 (mixture of isomers) [Example 97, 2-[2-fluoro-4-[2-[rac-(1S,2R)-2-[1-[5-(methoxymethyl)pyrimidin-2-yl]-4-piperidyl]cyclopropyl]ethoxy]phenyl]-1-[3-[[[(2S,3R,4R,5R)-2,3,4,5,6-pentahydroxyhexyl]amino]methyl]azetidin-1-yl]ethanone] | 100 to 130 | 100 to 1000
2 | O=C(Cc1ccc(OCCCC2CCN(c3ncc(Cl)cn3)CC2)cc1F)NCCO[C@H]1O[C@H](CO)[C@@H](O)[C@H](O)[C@@H]1O (racemic) [Example 16, 2-[4-[3-[1-(5-chloropyrimidin-2-yl)-4-piperidyl]propoxy]-2-fluoro-phenyl]-N-[2-[rac-(2S,3S,4S,5S,6R)-3,4,5-trihydroxy-6-(hydroxymethyl)tetrahydropyran-2-yl]oxyethyl]acetamide] | 100 to 130 | 100 to 1000
3 | O=C(NCCO[C@H]1O[C@H](CO)[C@@H](O)[C@H](O)[C@@H]1O)C1CN(C(=O)Cc2ccc(OCCCC3CCN(c4ncc(Cl)cn4)CC3)cc2F)C1 (racemic) [Example 31, 1-[2-[4-[3-[1-(5-chloropyrimidin-2-yl)-4-piperidyl]propoxy]-2-fluoro-phenyl]acetyl]-N-[2-[rac-(2S,3S,4S,5S,6R)-3,4,5-trihydroxy-6-(hydroxymethyl)tetrahydropyran-2-yl]oxyethyl]azetidine-3-carboxamide] | 100 to 130 | 100 to 1000
4 | COCc1cnc(N2CCC(CCCOc3ccc(CC(=O)N4CC(C(=O)NC[C@H](O)[C@@H](O)[C@H](O)[C@H](O)CO)C4)c(F)c3)CC2)nc1 (racemic) [Example 39, 1-[2-[2-fluoro-4-[3-[1-[5-(methoxymethyl)pyrimidin-2-yl]-4-piperidyl]propoxy]phenyl]acetyl]-N-[rac-(2S,3R,4R,5R)-2,3,4,5,6-pentahydroxyhexyl]azetidine-3-carboxamide] | 100 to 130 | 100 to 1000
5 | O=C(Cc1ccc(OCCCC2CCN(c3ncc(Cl)cn3)CC2)cc1F)N1CC(CN[C@@H]2C[C@H](O)[C@@H](O)[C@H]2O)C1 (racemic) [Example 49, 2-[4-[3-[1-(5-chloropyrimidin-2-yl)-4-piperidyl]propoxy]-2-fluoro-phenyl]-1-[3-[[[rac-(1R,2S,3R,4S)-2,3,4-trihydroxycyclopentyl]amino]methyl]azetidin-1-yl]ethanone] | ≥ 130 | 100 to 1000
6 | COc1cnc(N2CCC(CCCOc3ccc(CC(=O)N4CC(CNC[C@H](O)[C@@H](O)[C@H](O)[C@H](O)CO)C4)c(F)c3)CC2)nc1 (racemic) [Example 79, 2-[2-fluoro-4-[3-[1-(5-methoxypyrimidin-2-yl)-4-piperidyl]propoxy]phenyl]-1-[3-[[[rac-(2S,3R,4R,5R)-2,3,4,5,6-pentahydroxyhexyl]amino]methyl]azetidin-1-yl]ethanone] | 100 to 130 | 100 to 1000
7 | CCOc1cnc(N2CCC(CCCOc3ccc(CC(=O)N4CC(CNC[C@H](O)[C@@H](O)[C@H](O)[C@H](O)CO)C4)c(F)c3)CC2)nc1 (racemic) [Example 80, 2-[4-[3-[1-(5-ethoxypyrimidin-2-yl)-4-piperidyl]propoxy]-2-fluoro-phenyl]-1-[3-[[[rac-(2S,3R,4R,5R)-2,3,4,5,6-pentahydroxyhexyl]amino]methyl]azetidin-1-yl]ethanone] | 100 to 130 | 100 to 1000
8 | COCc1cnc(N2CCC(CCCCOc3ccc(CC(=O)N4CC(CNC[C@H](O)[C@@H](O)[C@H](O)[C@H](O)CO)C4)c(F)c3)CC2)nc1 (racemic) [Example 84, 2-[2-fluoro-4-[4-[1-[5-(methoxymethyl)pyrimidin-2-yl]-4-piperidyl]butoxy]phenyl]-1-[3-[[[rac-(2S,3R,4R,5R)-2,3,4,5,6-pentahydroxyhexyl]amino]methyl]azetidin-1-yl]ethanone] | 100 to 130 | 100 to 1000
9 | COCc1cnc(N2CCC(CCCCOc3cc(F)c(CC(=O)N4CC(CNC[C@H](O)[C@@H](O)[C@H](O)[C@H](O)CO)C4)c(F)c3)CC2)nc1 (racemic) [Example 85, 2-[2,6-difluoro-4-[4-[1-[5-(methoxymethyl)pyrimidin-2-yl]-4-piperidyl]butoxy]phenyl]-1-[3-[[[rac-(2S,3R,4R,5R)-2,3,4,5,6-pentahydroxyhexyl]amino]methyl]azetidin-1-yl]ethanone] | 100 to 130 | 100 to 1000
10 | O=C(OCCC1CCN(c2ncc(Cl)cn2)CC1)c1ccc(CC(=O)N2CC(CNC[C@H](O)[C@@H](O)[C@H](O)[C@H](O)CO)C2)c(F)c1 (racemic) [Example 91, 2-[1-(5-chloropyrimidin-2-yl)-4-piperidyl]ethyl 3-fluoro-4-[2-oxo-2-[3-[[[rac-(2S,3R,4R,5R)-2,3,4,5,6-pentahydroxyhexyl]amino]methyl]azetidin-1-yl]ethyl]benzoate] | 100 to 130 | 1000 to 10000
11 | O=C(Cc1ccc(CC(=O)N2CC(CNC[C@H](O)[C@@H](O)[C@H](O)[C@H](O)CO)C2)c(F)c1)OCCC1CCN(c2ncc(Cl)cn2)CC1 (racemic) [Example 92, 2-[1-(5-chloropyrimidin-2-yl)-4-piperidyl]ethyl 2-[3-fluoro-4-[2-oxo-2-[3-[[[rac-(2S,3R,4R,5R)-2,3,4,5,6-pentahydroxyhexyl]amino]methyl]azetidin-1-yl]ethyl]phenyl]acetate] | 100 to 130 | 100 to 1000
12 | O=C(OC[C@@H]1C[C@@H]1C1CCN(c2ncc(Cl)cn2)CC1)c1ccc(CC(=O)N2CC(CNC[C@H](O)[C@@H](O)[C@H](O)[C@H](O)CO)C2)c(F)c1 (racemic) [Example 95, (1R,2R)-2-[1-(5-chloropyrimidin-2-yl)-4-piperidyl]cyclopropyl]methyl 3-fluoro-4-[2-oxo-2-[3-[[[rac-(2S,3R,4R,5R)-2,3,4,5,6-pentahydroxyhexyl]amino]methyl]azetidin-1-yl]ethyl]benzoate] | 100 to 130 | 100 to 1000
13 | CC1(OC(=O)N2CCC(CCCOc3ccc(CC(=O)N4CC(CNC[C@H](O)[C@@H](O)[C@H](O)[C@H](O)CO)C4)c(F)c3)CC2)CC1 (racemic) [Example 119, (1-methylcyclopropyl) 4-[3-[3-fluoro-4-[2-oxo-2-[3-[[[rac-(2S,3R,4R,5R)-2,3,4,5,6-pentahydroxyhexyl]amino]methyl]azetidin-1-yl]ethyl]phenoxy]propyl]piperidine-1-carboxylate] | 100 to 130 | 100 to 1000
14 | O=C(Cc1ccc(OCCCC2CCN(c3ncc(Cl)cn3)CC2)cc1F)N1CC(CN2C[C@H](O)[C@@H](O)C2)C1 (stereo in doubt) [Example 46, 2-[4-[3-[1-(5-chloropyrimidin-2-yl)-4-piperidyl]propoxy]-2-fluoro-phenyl]-1-[3-[[rac-(3S,4S)-3,4-dihydroxypyrrolidin-1-yl]methyl]azetidin-1-yl]ethanone] | 100 to 130 | ≤ 100
15 | O=C(Cc1ccc(OCCCC2CCN(c3ncc(Cl)cn3)CC2)cc1F)N1CC(CN2C[C@@H](O)[C@H](O)C2)C1 (stereo in doubt) [Example 47, 2-[4-[3-[1-(5-chloropyrimidin-2-yl)-4-piperidyl]propoxy]-2-fluoro-phenyl]-1-[3-[[rac-(3R,4R)-3,4-dihydroxypyrrolidin-1-yl]methyl]azetidin-1-yl]ethanone] | 100 to 130 | ≤ 100
16 | O=C(Cc1ccc(OCCCC2CCN(c3ncc(Cl)cn3)CC2)cc1F)NCCCCCNC(CO)CO [Example 1, 2-[4-[3-[1-(5-chloropyrimidin-2-yl)-4-piperidyl]propoxy]-2-fluoro-phenyl]-N-[5-[[2-hydroxy-1-(hydroxymethyl)ethyl]amino]pentyl]acetamide] | ≥ 130 | 100 to 1000
17 | CC[N+](CC)(CC)CCCCCNC(=O)Cc1ccc(OCCCC2CCN(c3ncc(Cl)cn3)CC2)cc1F [Example 2, 5-[[2-[4-[3-[1-(5-chloropyrimidin-2-yl)-4-piperidyl]propoxy]-2-fluoro-phenyl]acetyl]amino]pentyl-triethyl-ammonium] | ≥ 130 | 100 to 1000
18 | O=C(Cc1ccc(OCCCC2CCN(c3ncc(Cl)cn3)CC2)cc1F)NCCCCCNC[C@H](O)[C@@H](O)[C@H](O)[C@H](O)CO [Example 3] | ≥ 130 | 100 to 1000
19 | CCCc1cnc(N2CCC(CCCOc3cc(F)c(CC(=O)NCCCCC[N+](CC)(CC)CC)c(F)c3)CC2)nc1 [Example 4, 5-[[2-[2,6-difluoro-4-[3-[1-(5-propylpyrimidin-2-yl)-4-piperidyl]propoxy]phenyl]acetyl]amino] pentyl-triethyl-ammonium] | 100 to 130 | 100 to 1000
